In patent publication EP1724268A1, “COMPOUND HAVING TGF-BETA INHIBITORY ACTIVITY AND PHARMACEUTICAL COMPOSITION CONTAINING SAME” (KIRIN BEER KABUSHIKI KAISHA, priority 2004, dated 2005):
Where two headings read alike, the source gives them in different places.

System: TGFβ signal
Test: TGFβ signal inhibitory activity, (SBE)4-Luc reporter in A549 cells (Test Examples 1A and 1B)
Format: cell-based, human
Conditions: Homo sapiens, A549, read-out: TGFβ inhibition rate, %; for inhibition at 1 µM: test compound 1 µM
Method: Test Example 1A: TGFβ signal inhibitory activity (in vitro test) The compounds according to the present invention was evaluated for TGFβ signal inhibitory activity according to the method described in J. Boil .Chem., 273, 21145-21152 (1998). Specifically, a plasmid having four tandem binding sequences of Smad3, a TGF-beta signal transducer, to the upstream of a luciferases gene were used as a reporter plasmid ((SBE)4-Luc) to detect TGF-beta signal, This reporter gene was introduced into human pulmonary carcinoma epithelial cells (A549) (available from ATCC) to establish a stable cell line. A test compound and TGFβ-1 (2 ng/ ml) were added to the cells, and the mixture was cultured for 4 hr. In this case, the compounds according to the present invention synthesized in the Examples were used as the test compound. After the culture, the luciferase activity of the cells were measured by chemiluminescence (Steady Glo (trademark) luciferase assay system, available from Promega). Likewise, the luciferase activity was measured as a control against the culture of cells with the addition of TGFβ only and the culture of cells without the addition of both TGFβ and the test compound.
The TGFβ inhibition (%) was calculated by the following equation, based on the measurement results. TGFβ inhibition(%) = (A-B)/(A-C) × 100 [formula] wherein • A: luciferase activity with the addition of TGFβ1 and without the addition of test compound (relative luciferase unit), • B: luciferase activity with the addition of both TGFβ1 and test compound (relative luciferase unit), and • C: luciferase activity without the addition of both TGFβ1 and test compound (relative luciferase unit).
The test was carried out for each of test compound at the concentrations of 3 µM and 10 µM. For certain test compounds, the test was further carried out for test compound at the concentration of 1 µM.
For the compounds of Reference Examples, the TGFβ signal inhibitory activity was evaluated in the same manner as in Test Example 1A.

[1] = 3 µM, compounds of Reference Examples (Test Example 1B)
[2] = 10 µM, compounds of Reference Examples (Test Example 1B)
[3] = test compound 3 µM, TGFβ-1 2 ng/ml, 4 hr, Table 1A
[4] = test compound 10 µM, TGFβ-1 2 ng/ml, 4 hr, Table 1A
[5] = test compound 3 µM, Reference Examples, Table 1B
[6] = test compound 10 µM, Reference Examples, Table 1B

Q: With `COc1cc2c(Oc3cc4ccccc4nc3C)ccnc2cc1OCCN1CCC(O)CC1` [Compound r364] as the compound, how does the inhibition at 3 µM [1] read?
A: 100%

Q: And the inhibition at 10 µM [2]?
A: 100%

Q: How did the inhibition at 3 µM [1] turn out when `COc1cc2c(Oc3cc(C)c(C)nc3-c3cccc(C)n3)ccnc2cc1OCC(O)CO` (stereo not shown) [Compound r449] was run?
A: 74%

Q: And the inhibition at 10 µM [2]?
A: 98%

Q: Which results are given for `Cc1cc(Oc2ncnc3sc(C)c(C)c23)c(-c2ccccn2)nc1C` [Compound 35, 3-(5,6-Dimethyl-thieno[2,3-d]pyrimidin-4-yloxy)-5,6-dimethyl-[2,2']bipyridine]?
A: inhibition at 3 µM [3]: 95%; inhibition at 10 µM [4]: 100%

Q: What does the source list for `COc1ccc(Oc2ccnc3cc(OC)c(OC)cc23)c(C(=O)c2nccs2)c1` [r192]?
A: inhibition at 3 µM [1]: 79%; inhibition at 10 µM [2]: 99%

Q: Which results are given for `CCC(=O)c1ccc(OCc2ccccc2)cc1Oc1ccnc2cc(OC)c(OC)cc12` [Compound r45]?
A: inhibition at 3 µM [5]: 0%; inhibition at 10 µM [6]: 67%

Q: With `CCCCc1ccc(Oc2ccnc3cc(OC)c(OC)cc23)c(C(C)=O)c1` [r174] as the compound, how does the inhibition at 3 µM [1] read?
A: 57%

Q: And the inhibition at 10 µM [2]?
A: 96%

Q: Which inhibition at 3 µM [1] does the source give for `COc1cc2c(Oc3cc(C)c(C)nc3-c3cccc(C)n3)ccnc2cc1OCCNCCO` [Compound r468] here?
A: 99%

Q: `COc1cc2c(Oc3cc4cnccc4nc3C)ccnc2cc1OCC(O)CO` (stereo not shown) [Compound r408] was tested. Which inhibition at 3 µM [1] did it give?
A: 38%

Q: What about the inhibition at 10 µM [2] of the same compound?
A: 79%

Q: Which inhibition at 3 µM [5] does the source give for `COc1cc2nccc(Oc3ccc4ncccc4c3)c2cc1OC` [r24] here?
A: 66%

Q: And the inhibition at 10 µM [6]?
A: 91%

Q: Which inhibition at 3 µM [1] does the source give for `COc1cc2nccc(Oc3cc4ccccc4nc3C)c2cc1OC` [r276] here?
A: 89%

Q: What about the inhibition at 10 µM [2] of the same compound?
A: 100%

Q: How did the inhibition at 3 µM [3] turn out when `Cc1ccc(Oc2ccnc3ccc(OCC4CCC4)cc23)c(-c2ncccn2)n1` [Compound 213, 6-Cyclobutylmethoxy-4-(6-methyl-2-pyrimidin-2-yl-pyridin-3-yloxy)-quinoline] was run?
A: 98%

Q: Which results are given for `Cc1cc(Oc2ccnc3ccc(-c4cccnc4)cc23)c(-c2ccccn2)nc1C` [Compound 6, 5,6-Dimethyl-3-(6-pyridin-3-yl-quinolin-4-yloxy)-[2,2']bipyridine]?
A: inhibition at 3 µM [3]: 100%; inhibition at 10 µM [4]: 100%

Q: With `COc1cc2nccc(Oc3cc4ccccc4nc3C(C)=O)c2cc1OC` [Compound r278, 1-[3-(6,7-Dimethoxy-quinolin-4-yloxy)-quinolin-2-yl]-ethanone] as the compound, how does the inhibition at 3 µM [1] read?
A: 90%

Q: What about the inhibition at 10 µM [2] of the same compound?
A: 99%

Q: For `COc1cc2c(Oc3ccc(C)cc3C(=O)c3ccccc3)ccnc2cc1OCCN1CCOCC1` [Compound r130], which inhibition at 3 µM [5] is on record?
A: 90%

Q: And the inhibition at 10 µM [6]?
A: 100%

Q: What does the source list for `COc1cc2c(Oc3ccc(C)cc3C(=O)c3ccccc3)ccnc2cc1OCC(O)CNCCO` (stereo not shown) [Compound r152]?
A: inhibition at 3 µM [5]: 99%; inhibition at 10 µM [6]: 100%

Q: Which inhibition at 3 µM [1] does the source give for `COc1cc2c(Oc3cc(C)c(C)nc3-c3nc(C)c(C)s3)ccnc2cc1OCCO` [Compound r461] here?
A: 82%

Q: With `CCCOC(=O)c1cc2ccccc2cc1Oc1ccnc2cc(OCCCN3CCOCC3)c(OC)cc12` [Compound r326] as the compound, how does the inhibition at 3 µM [1] read?
A: 83%

Q: What about the inhibition at 10 µM [2] of the same compound?
A: 100%

Q: For `COc1cc2c(Oc3cc(C)c(C)nc3-c3cccc(C)n3)ccnc2cc1OCCCO` [Compound r447], which inhibition at 3 µM [1] is on record?
A: 94%

Q: What about the inhibition at 10 µM [2] of the same compound?
A: 100%

Q: What does the source list for `COc1cc2c(Oc3ccc(C)cc3C(=O)c3ccccc3)ccnc2cc1OCCN1CCC(N2CCCC2)CC1` [Compound r127]?
A: inhibition at 3 µM [5]: 99%; inhibition at 10 µM [6]: 100%

Q: What does the source list for `COc1cc2nccc(Oc3cc4ccccc4nc3CN(C(C)C)C(C)C)c2cc1OC` [Compound r277, [3-(6,7-Dimethoxy-quinolin-4-yloxy)-quinolin-2-ylmethyl]-diisopropyl-amine]?
A: inhibition at 3 µM [1]: 32%; inhibition at 10 µM [2]: 89%

Q: Which inhibition at 3 µM [1] does the source give for `COc1cc2c(Oc3cc(C)c(C)cc3C(C)=O)ccnc2cc1O` [Compound r314] here?
A: 50%

Q: What about the inhibition at 10 µM [2] of the same compound?
A: 89%

Q: How did the inhibition at 3 µM [1] turn out when `COc1cc2c(Oc3cc4ccccc4nc3C)ccnc2cc1OCCNC(=N)N` [Compound r356] was run?
A: -2%

Q: And the inhibition at 10 µM [2]?
A: 54%

Q: For `COc1cc2nccc(Oc3ccc4ncccc4c3Cl)c2cc1OC` [r298], which inhibition at 3 µM [1] is on record?
A: 30%

Q: And the inhibition at 10 µM [2]?
A: 75%

Q: With `COc1cc2nccc(Oc3cc(C)c(C)nc3-c3ccccc3)c2cc1OC` [r268] as the compound, how does the inhibition at 3 µM [1] read?
A: 100%

Q: And the inhibition at 10 µM [2]?
A: 100%

Q: `Cc1ccc(Oc2ccnc3ccc(OCCC4CCCCC4)cc23)c(-c2ncccn2)n1` [Compound 216, 6-(2-Cyclohexylethoxy)-4-(6-methyl-2-pyrimidin-2-yl-pyridin-3-yloxy)-quinoline] was tested. Which inhibition at 3 µM [3] did it give?
A: 84%

Q: What does the source list for `COc1cc2nccc(Oc3cc(C)ccc3C(C)=O)c2cc1OC` [Compound r32]?
A: inhibition at 3 µM [5]: 81%; inhibition at 10 µM [6]: 98%

Q: Which results are given for `COc1cc2c(Oc3ccc(C)cc3C(=O)c3ccccc3)ccnc2cc1OCCCNCCO` [Compound r133]?
A: inhibition at 3 µM [5]: 100%; inhibition at 10 µM [6]: 100%

Q: For `COc1cc2nccc(Oc3ccc(C)cc3C)c2cc1OC` [r5], which inhibition at 3 µM [5] is on record?
A: 13%

Q: And the inhibition at 10 µM [6]?
A: 56%

Q: For `COc1cc2nccc(Oc3ccc(C)nc3-c3ccc(Oc4ccccc4)cc3)c2cc1OC` [Compound r250], which inhibition at 3 µM [1] is on record?
A: 34%

Q: What about the inhibition at 10 µM [2] of the same compound?
A: 81%

Q: With `CCN(CC)CCOc1cc2nccc(Oc3ccc(C)cc3C(=O)c3ccccc3)c2cc1OC` [Compound r125] as the compound, how does the inhibition at 3 µM [5] read?
A: 98%

Q: And the inhibition at 10 µM [6]?
A: 100%

Q: How did the inhibition at 3 µM [5] turn out when `COc1cc2nccc(Oc3ccc4ccccc4c3)c2cc1OC` [Compound r17] was run?
A: 15%

Q: What about the inhibition at 10 µM [6] of the same compound?
A: 80%

Q: `COc1cc2c(Oc3cc(C)c(C)nc3-c3ccccn3)ccnc2cc1OCc1ccccc1` [Compound r337] was tested. Which inhibition at 3 µM [1] did it give?
A: 98%

Q: `COc1cc2nccc(Oc3cc4ccccc4cc3C(=O)Oc3ccccc3)c2cc1OC` [Compound r102] was tested. Which inhibition at 3 µM [5] did it give?
A: 33%

Q: What about the inhibition at 10 µM [6] of the same compound?
A: 95%

Q: Which inhibition at 1 µM (TGFβ-1 2 ng/ml, 4 hr, Table 1A) does the source give for `COc1cc2nccc(Oc3cc4ccccc4nc3-c3ncccn3)c2cc1OC` [Compound 92, 6,7-Dimethoxy-4-(2-pyrimidin-2-yl-quinolin-3-yloxy)-quinoline] here?
A: 62%

Q: And the inhibition at 3 µM [3]?
A: 98%

Q: Which inhibition at 3 µM [3] does the source give for `COc1cc2ncnc(Oc3cc(C)c(C)nc3-c3ncccn3)c2cc1OC` [Compound 51, 4-(5,6-Dimethyl-2-pyrimidin-2-yl-pyridin-3-yloxy)-6,7-dimethoxy-quinazoline] here?
A: 93%

Q: What about the inhibition at 10 µM [4] of the same compound?
A: 100%

Q: For `CCC(=O)c1ccc(OC)cc1Oc1ccnc2cc(OC)c(OC)cc12` [r44], which inhibition at 3 µM [5] is on record?
A: 97%

Q: And the inhibition at 10 µM [6]?
A: 100%

Q: Which inhibition at 3 µM [1] does the source give for `COc1cc2nccc(Oc3ccc(C)cc3C(O)CCCCCCCCCO)c2cc1OC` (stereo not shown) [r165] here?
A: 38%

Q: And the inhibition at 10 µM [2]?
A: 89%

Q: With `Brc1ccc(-c2nc3ncccc3cc2Oc2ccnc3ccccc23)cc1` [Compound 82, 2-(4-Bromo-phenyl)-3-(quinolin-4-yloxy)-[1,8]naphthyridine] as the compound, how does the inhibition at 3 µM [3] read?
A: 25%

Q: What about the inhibition at 10 µM [4] of the same compound?
A: 67%

Q: How did the inhibition at 3 µM [3] turn out when `Cc1ccc(Oc2ccnc3ccc(OCC(C)(C)CO)cc23)c(-c2ncccn2)n1` [Compound 215, 2,2-Dimethyl-3-[4-(6-methyl-2-pyrimidin-2-yl-pyridin-3-yloxy)-quinolin-6-yloxy]-propan-1-ol] was run?
A: 79%

Q: With `COc1ccc2c(Oc3cc(C)c(C)nc3-c3ccccn3)ccnc2c1` [Compound 16, 3-(7-Methoxy-quinolin-4-yloxy)-5,6-dimethyl-[2,2']bipyridine] as the compound, how does the inhibition at 1 µM (TGFβ-1 2 ng/ml, 4 hr, Table 1A) read?
A: 97%

Q: What about the inhibition at 3 µM [3] of the same compound?
A: 100%

Q: Which inhibition at 3 µM [1] does the source give for `COc1cc2c(Oc3cc(C)c(C)nc3-c3ccc(C)cn3)ccnc2cc1OCCO` [Compound r459] here?
A: 98%

Q: What does the source list for `COC(=O)CCCCCCC(=O)c1cc(C)ccc1Oc1ccnc2cc(OC)c(OC)cc12` [r187]?
A: inhibition at 3 µM [1]: 35%; inhibition at 10 µM [2]: 91%

Q: How did the inhibition at 3 µM [1] turn out when `COc1cc2c(Oc3cc4cccnc4nc3C)ccnc2cc1OCCN1CCOCC1` [Compound r441] was run?
A: 97%

Q: What about the inhibition at 10 µM [2] of the same compound?
A: 100%

Q: How did the inhibition at 3 µM [3] turn out when `Cc1cc(Oc2ccnc3cc(-c4cccc(O)c4)ccc23)c(-c2ccccn2)nc1C` [Compound 106, 3-[4-(5,6-Dimethyl-[2,2']bipyridinyl-3-yloxy)-quinolin-7-yl]-phenol] was run?
A: 99%

Q: And the inhibition at 10 µM [4]?
A: 100%

Q: With `COc1cc2c(Oc3ccc(C)cc3C(=O)c3ccccc3)ccnc2cc1OCCNCCO` [r124] as the compound, how does the inhibition at 3 µM [5] read?
A: 99%

Q: What about the inhibition at 10 µM [6] of the same compound?
A: 100%

Q: For `COc1cc2nccc(Oc3cc(C)c(C)nc3-c3ncccn3)c2cc1OC` [r274], which inhibition at 3 µM [1] is on record?
A: 97%

Q: Which results are given for `Cc1cc(Oc2ccnc3ccc(-c4cccc(N)c4)cc23)c(-c2ccccn2)nc1C` [Compound 10, 3-[4-(5,6-Dimethyl-[2,2']bipyridin-3-yloxy)-quinolin-6-yl]-phenylamine]?
A: inhibition at 3 µM [3]: 100%; inhibition at 10 µM [4]: 100%

Q: For `COc1cc2nccc(Oc3ccc(O)cc3C(C)=O)c2cc1OC` [r176], which inhibition at 3 µM [1] is on record?
A: 32%

Q: And the inhibition at 10 µM [2]?
A: 67%
